# Laboratory results from ChEMBL document CHEMBL1151596, “7-Oxa[2.2.1]bicycloheptane-2,3-dicarboxylic acid derivatives as phosphatase inhibitors” (Bioorg Med Chem Lett, 1997).
# How the values were obtained:
# [1] = system: Jurkat; assay: Effect on the transcription and release of IL-2 in a reporter-gene assay (RGA); type: functional, cell-based; conditions: Homo sapiens
# [2] = Compound was tested for inhibition of protein phosphatase 2B (PP2B, Calcineurin)
# [3] = Compound was tested for inhibition of protein phosphatase 2A (PP2A)
# [4] = Effect on the transcription and release of thymidine kinase in a reporter-gene assay (RGA); type: functional
# [5] = Compound was tested for inhibition of […] ([…])
# [6] = system: T-cell; assay: Compound was tested for inhibition of IL-2 secretion in mouse T cell line; type: functional, cell-based
IC50 [6],SMILES,IC50 [1],Ki [2],IC50 [3],Ki [3],IC50 [4],IC50 [5]
–,C/C=C/C[C@@H](C)[C@@H](O)[C@H]1C(=O)N[C@@H](CC)C(=O)N(C)CC(=O)N(C)[C@@H](CC(C)C)C(=O)N[C@@H](C(C)C)C(=O)N(C)[C@@H](CC(C)C)C(=O)N[C@@H](C)C(=O)N[C@H](C)C(=O)N(C)[C@@H](CC(C)C)C(=O)N(C)[C@@H](CC(C)C)C(=O)N(C)[C@@H](C(C)C)C(=O)N1C [CYCLOSPORINE],0.008 µM,–,–,–,–,–
–,"COC(=O)[C@H]1[C@@H](C(=O)O)[C@@H]2CC[C@H]1O2 (single isomer, unassigned)",–,> 100 µM,–,–,–,–
–,O=C1OC(=O)[C@H]2[C@@H]1[C@@H]1CC[C@H]2O1 [DEMETHYL-CANTHARIDIN],> 22 µM,3.33 µM,0.97 µM,0.2 µM,100 µM,5 µM
–,C[C@@]12C(=O)OC(=O)[C@]1(C)[C@H]1CC[C@@H]2O1 [CANTHARIDIN],–,10.8 µM,–,0.065 µM,–,–
–,CCOC(=O)[C@@H]1[C@H](C(=O)OCC)[C@H]2CC[C@@H]1O2,–,> 100 µM,–,–,–,–
5 µM,CN(C)C(=O)[C@H]1[C@@H](C(=O)O)[C@@H]2CC[C@H]1O2,4.7 µM,2.78 µM,–,0.18 µM,100 µM,–
–,O=C(O)[C@@H]1[C@H](C(=O)O)[C@H]2CC[C@@H]1O2,> 100 µM,3.02 µM,–,0.17 µM,42 µM,–
